Experiments:
[1] = rhesus monkey, in vivo
hippocampal neurons = assay: Hippocampal neuron apoptosis induced by high-oxygen (50% oxygen) incubation; type: cell-based, rat (Wistar strain, fetal); settings: 48 hours; for survival rate of neurons at 3000 nM (FIG. 2): control = neurons in 9% oxygen; for survival rate of hippocampal neurons incubated in 50% oxygen (FIG. 1): 5 μM (bFGF 50 nM), neurons in 9% oxygen as control; for IC50: Rattus norvegicus, Hippocampal neuron, read-out: IC50 (inhibition of hippocampal neural apoptosis); for dose-dependent effect on hippocampal neural apoptosis / neuroprotection (FIG. 2): range of concentrations tested, n=4
Procedure: Effect of 15R-TIC and Deoxy-TIC on hippocampal neuron apoptosis induced by a high-oxygen incubation was tested.
Isocarbacyclin was a pure sample supplied from Teijin Co., Ltd. 15S-TIC was prepared in accordance with the method disclosed in Example 3 of JP-A 245,498/96 by using 15S-16-m-tolyl-17,18,19,20-tetra-nor-carbacyclin which is also disclosed in Example 2 of the same Publication JP-A 245,498/96. The 15R-TIC was prepared by the same method as disclosed in Example 3 of the Publication JP-A 245,498/96. bFGF was the commercially available one.
Hippocampal region was cut out from the fetal rat brain which was aseptically isolated from a pregnant rat (Wistar strain) of […] and the hippocampal region was dispersed into neurons by shaking culture for 30 minutes in a PBS (Ca- and Mg-free) containing DL-cysteine (0.2 mg/ml), bovine serum albumin (0.2 mg/ml), glucose (5 mg/ml), DNase I (0.01%) and papain (9 units/ml). After that, each neutron was planted at the density of 5×10^5 cells/cm^2 on a 24-well plate (coated with polyethyleneimine) filled with a DME/F-12 medium (containing 5% equine serum and 5% fetal bovine serums and incubated for two days in a 5% carbon dioxide gas incubator (9% oxygen). After that, the culture medium was substituted with an DME/F-12 medium (containing 5 μg/ml of transferrin, 5 μg/ml of insulin and 5 nM progasterone) wherefrom serum was removed. Then each sample to be tested was added to the medium, and after 30 minutes, transfered into 50% oxygen. After incubating in 50% oxygen for 48 hours, the survival rate of the neurons was measured. The neurons in 9% oxygen were also added to each sample and the survival rate was measured.
Which regard to the survival rate, the neurons were immobilized by 4% paraformaldehyde, stained with anti-MAP2 antibody and colored by DAB, and the cells positive to MAP2 were counted from the 200-fold enlarged picture whereupon the survival rate was calculated.

[2] = test system: hippocampal CA1 pyramidal neurons; assay: Hippocampal CA1 pyramidal neuron apoptosis induced by transient forebrain ischemia, in vivo; set-up: species or system mongolian gerbil; settings: continuous infusion into left lateral ventricle for 7 days
Procedure: Effect of 15R-TIC on hippocampal CA1 pyramidal neurons apoptosis induced by ischemic damage in mongolian gerbils was tested in vivo.
To examine whether 15R-TIC can prevent nouronal death in vivo, using an osmotic mini-pomp, 15R-TIC solution was continuously infused for 7 days (started 2 days before the transient ischemia and ended at 5 days) into the left lateral ventricle of gerbils that had been subjected to a transient forebrain ischemia for 3 minutes. Survival number of CA1 pyramidal neurons was assessed by counting neurons with cell bodies larger than 10 μm in the Nissl-staining sections.

Structure (SMILES)	pass through blood-brain-barrier / transfer into brain ([1]; iv)	survival rate of hippocampal neurons incubated in 50% oxygen (FIG. 1) (hippocampal neurons)	dose-dependent effect on hippocampal neural apoptosis / neuroprotection (FIG. 2) (hippocampal neurons)	also measured
COC(=O)CCCCC1=C[C@H]2C[C@@H](O)[C@H](/C=C/[C@H](O)Cc3cccc(C)c3)[C@H]2C1 [15R-TIC methyl ester]	efficiently transfererd into the brain			conversion in the brain (prodrug behaviour) [1]: is converted to 15R-TIC in the brain
Cc1cccc(C[C@@H](O)/C=C/[C@@H]2[C@H]3CC(CCCCC(=O)O)=C[C@H]3C[C@H]2O)c1 [15R-TIC, 15R-16-(m-tolyl)-17,18,19,20-tetranorisocarbacyclin]		an increase in the survival rate of neurons was observed to the same or even better extent as compared with the case of bFGF	dose-dependent inhibitory effect on neural apoptosis	survival rate of neurons at 3000 nM (FIG. 2) (hippocampal neurons): equivalent to the control; IC50 (hippocampal neurons): ~300 nM; loss of CA1 pyramidal neurons induced by forebrain ischemia [2]: blocked the loss of CA1 pyramidal neurons induced by forebrain ischemia; number of CA1 pyramidal neurons ([2]; in a 20 μm thick section, n=4, 3 minutes transient forebrain ischemia, ischemia-free control 1061±220, vehicle 142±28): 984±299
Cc1cccc(C[C@H](O)/C=C/[C@@H]2[C@H]3CC(CCCCC(=O)O)=C[C@H]3C[C@H]2O)c1 [15S-TIC, reference compound]		greatly reduced by apoptosis induced by a high-oxygen condition as same as under the control condition	did not have any effect on neuroprotection in the range of concentrations tested	
Cc1cccc(CC/C=C/[C@@H]2[C@H]3CC(CCCCC(=O)O)=C[C@H]3C[C@H]2O)c1 [Deoxy-TIC, 15-Deoxy-16-(m-tolyl)-17,18,19,20-tetranorisocarbacyclin]		an increase in the survival rate of neurons was observed to the same or even better extent as compared with the case of bFGF	dose-dependent inhibitory effect on neural apoptosis	survival rate of neurons at 3000 nM (FIG. 2) (hippocampal neurons): equivalent to the control; IC50 (hippocampal neurons): ~30 nM
COC(=O)CCCCC1=C[C@H]2C[C@@H](O)[C@H](/C=C/[C@H](O)Cc3cccc([11CH3])c3)[C@H]2C1 [RTA]	equivalent pass through blood-brain-barrier			conversion in the brain (prodrug behaviour) [1]: could serve as a prodrug for 15R-TIC; retention in the brain ([1]; iv): retained in the brain further than RTC
Cc1cccc(C[C@@H](O)/C=C/[C@@H]2[C@H]3CC(CCCCC(=O)O[11CH3])=C[C@H]3C[C@H]2O)c1 [RTC]	equivalent pass through blood-brain-barrier			
CCCCC[C@H](O)/C=C/[C@@H]1[C@H]2CC(CCCCC(=O)O)=C[C@H]2C[C@H]1O [isocarbacyclin]		greatly reduced by apoptosis induced by a high-oxygen condition as same as under the control condition	did not have any effect on neuroprotection in the range of concentrations tested	

Reference: patent US6087395A, “Isocarbacyclin derivatives as apoptosis inhibitors” (Japan Science and Technology Corporation, priority 1997, dated 2000)
